Converted amounts (≈) assume the structure as drawn. Where two headings read alike, the source gives them in different places.
Assays:
[1] = system: C. auris clinical strains; test: organism not typed; format: cell-based, Candida auris; settings: range, 78 strains from patients with COVID-19
[2] = system: Candida spp. blood isolates; settings: 2009–2018
Protocol: Ward of hospitalization at the time of the diagnosis, species identification and in vitro antifungal susceptibility profile (where available) were recorded. Identification of Candida isolates and susceptibility testing were performed as per hospital protocol. Annual incidence rates/100,000 inhabitants were calculated. Chi-square test for trend was used for evaluation of changes in species distribution.

[3] = system: Candida sp. and other yeast isolates, planktonic; test: MIC of catheter yeast isolates, planktonic form; format: cell-based; settings: range; read-out: MIC
[4] = system: sessile cells of yeast mono and dual-species biofilms; test: MIC of catheter yeast isolates, mono and dual-species biofilms; format: cell-based; settings: range
Candida auris isolates [5] = test: microbe, parasite or virus in culture; format: cell-based
Candida auris isolates [6] = test: Disc diffusion, Oxoid discs; format: cell-based
[7] = system: environmental yeasts from a lagoon; test: organism not typed; format: cell-based
[8] = system: Exophiala phaeomuriformis; test: MIC, CLSI M27-A3; format: cell-based; settings: read-out: MIC values
Protocol: Materials & Methods: The aviation kerosone samples came from an aviation company in Porto Alegre, state of Rio Grande do Sul, Brazil. The fungi isolation was carried out using the modified ASTM D6974-09 Standard. In this procedure, 500 mL kerosene samples were filtered, in triplicate, under aseptic conditions, under vacuum, using a 0.22 μm membrane (Millipore). After filtering, the membranes were deposited in potato dextrose agar culture medium. The plates were incubated in an oven at 30 °C for seven days. After this period, the colonies were isolated in new culture media for purification of the isolates. Molecular identification was performed through the sequencing of ITS DNA regions. The profile of sensitivity to clinical antifungals was assessed following protocols M27-A3 of the Clinical and Laboratory Standards Institute (CLSI).

C. albicans [9] = test: Candidemia Netherlands, MIC distributions against EUCAST ECOFF; format: cell-based, Candida albicans
C. glabrata [10] = test: as above; format: cell-based, Candida glabrata
F. verticillioides = test: Etest susceptibility; format: cell-based, Fusarium verticillioides
[11] = system: invasive C. glabrata strains; test: YeastOne Sensititre colorimetric broth microdilution; format: cell-based, Candida glabrata; settings: Nakaseomyces glabratus
Protocol: Material and Method: Thirty-six clinical isolates of invasive C. glabrata strains were analyzed in this study. Minimum inhibitory concentrations (MICs) were determined using colorimetric broth microdilution (YeastOneSensititre, Trek diagnostics). Genomic DNA was isolated using Qiagen DNA extraction Kit. The FKS1 and FKS2 gene fragment were amplified and PCR products were purified prior to sequencing. Double-strand sequencing of PCR products was performed using Sanger sequencing methodology. Sequences were analyzed with MEGA-6 software to identify specific SNP combination against wild-type sequences of C. glabrata.

C. albicans [12] = format: cell-based, Candida albicans
C. parapsilosis = format: cell-based, Candida parapsilosis
C. glabrata [13] = format: cell-based, Candida glabrata
C. tropicalis = format: cell-based, Candida tropicalis
C. krusei = format: cell-based, Candida krusei
Other species of Candida = format: cell-based, Candida spp.
Aspergillus tubingensis = test: EUCAST susceptibility; format: cell-based
Protocol: The fungus was identified as Aspergillus niger and liposomal amphotericine B was switched to anidulafungin pending susceptibility testing as the patient had pre-existing […] (eGFR CKD-EPI 40 mL/min/1.73 m²). […] Despite increasing the anidulafungin dosage to 200 mg daily and adequate voriconazol levels, serum galactomannan levels remained elevated (index 2.1 at discharge). […] Since no extracardiac sources were found and the patient did well clinically, they were discharched. Anidulafungin was switched to caspofungin to facilitate ongoing IV treatment in the outpatient setting. […] The patient died shortly after. Obduction was not performed.

Nc1[nH]c(=O)ncc1F [5-flucytosine] was tested, and the MIC [1] was 0.06 to 0.12 µg/mL (≈ 0.465 to 0.93 µM) and the Resistance [2] was “No resistance”.
In the case of CC[C@H](C)C[C@H](C)CCCCCCCCC(=O)N[C@H]1C[C@@H](O)[C@@H](NCCN)NC(=O)[C@@H]2[C@@H](O)CCN2C(=O)[C@H]([C@H](O)CCN)NC(=O)[C@H]([C@H](O)[C@@H](O)c2ccc(O)cc2)NC(=O)[C@@H]2C[C@@H](O)CN2C(=O)[C@H]([C@@H](C)O)NC1=O [caspofungin], the MIC [1] is reported as 0.06 to 1 µg/mL (≈ 0.0549 to 0.915 µM), the MIC [3] is reported as 0.06 to 1 µg/mL and the MIC [4] is reported as 0.5 to 16 µg/mL. For the same compound, the “categorised as resistant on MIC” value (Candida auris isolates [5]; CDC guidelines) was 13.2%, the MIC (Candida auris isolates [5]; Candidozyma auris, […], IQR given, read-out: median MIC) was 0.12 µg/mL (≈ 0.11 µM) and the “categorised as resistant on ZD” value (Candida auris isolates [6]) was “none”. The “median zone diameter (ZD)” value (Candida auris isolates [6]; 25 µg FLU and 5 µg CAS discs, […]) was 23 mm, the “isolates classified as resistant-like” value ([7]; number of 71 yeasts, MIC at or above Candida breakpoint) was 48 and the MIC ([7]; range, read-out: MIC of resistant-like isolates) was 1 to 128 µg/mL. For the same compound, the MIC [8] was greater than 8 µg/mL, the “isolates within the wildtype distribution range” value (C. albicans [9]) was 98.9% and the “isolates within the wildtype distribution range” value (C. glabrata [10]) was 87.1%. The “minimum inhibitory concentration (MIC), in words” value (F. verticillioides) was “high values”, the MIC ([11]; 36 clinical isolates, read-out: median (Min–Max) MIC) was 0.06 µg/mL and the MIC ([11]; isolate with FKS1 D632H) was 0.25 µg/mL. For the same compound, the MIC ([11]; isolate with FKS2 I661T) was 0.12 µg/mL, the “I (intermediate) isolates, n (%)” value (C. albicans [12]) was 0 (0%) and the “R (resistant) isolates, n (%)” value (C. albicans [12]) was 0 (0%). For the same compound, the “S (sensitive) isolates, n (%)” value (C. albicans [12]) was 138 (100), the “I (intermediate) isolates, n (%)” value (C. parapsilosis) was 0 (0%) and the “R (resistant) isolates, n (%)” value (C. parapsilosis) was 0 (0%). The “S (sensitive) isolates, n (%)” value (C. parapsilosis) was 132 (100%), the “R (resistant) isolates, n (%)” value (C. glabrata [13]) was 3 (5.5%) and the “S (sensitive) isolates, n (%)” value (C. glabrata [13]) was 44 (80%). The “I (intermediate) isolates, n (%)” value (C. tropicalis) was 0 (0%), the “R (resistant) isolates, n (%)” value (C. tropicalis) was 0 (0%) and the “S (sensitive) isolates, n (%)” value (C. tropicalis) was 44 (100%). The “I (intermediate) isolates, n (%)” value (C. krusei) was 1 (33.3%), the “S (sensitive) isolates, n (%)” value (C. krusei) was 2 (66.7%) and the “I (intermediate) isolates, n (%)” value (Other species of Candida) was 0 (0%). For the same compound, the “R (resistant) isolates, n (%)” value (Other species of Candida) was 0 (0%), the “S (sensitive) isolates, n (%)” value (Other species of Candida) was 18 (100%) and the MIC (Aspergillus tubingensis) was 60 µg/mL (≈ 54.9 µM).
